Test results as given in paper PMC10257182, “Discovery of senolytics using machine learning” (Nature Communications, 2023).

How the values were obtained:
Assay type in all cases: cell-based, human
[1] = system: senescent IMR90 ER:RAS cells (4-OHT-induced); experiment: Nuclei count (Hoechst, high content imaging) senolytic assay, oncogene-induced senescence (OIS) model, senescent cells; details: Homo sapiens, IMR-90, 72 h, Senescent, mean n=3 (Fig 3C), read-out: Mean % Cell Survival
Method in brief: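 Senolytic read-out as total nuclei per well by automated Hoechst imaging after 72 h compound exposure (10 μM to 10 nM, 10-point […], triplicate), relative to untreated controls. Paired cultures: IMR90 ER:RAS kept non-senescent or made senescent with 100 nM final 4-OHT; ouabain served as positive control.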

[2] = system: senescent A549 cells (etoposide-induced); experiment: Nuclei count senolytic assay, therapy-induced senescence (TIS) model, senescent cells; details: Homo sapiens, A549, Senescent cells, mean, read-out: Mean % Cell Survival
Method in brief: (§1)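 Nuclei counted by Hoechst 33342 imaging after fixation, following 72 h treatment with compound at 10 nM–10 μM (10-point […], triplicates). Targets were control A549 cells and A549 rendered senescent by 48 h 100 μM etoposide plus 3 days recovery.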

[3] = system: non-senescent control A549 cells; experiment: Nuclei count senolytic assay, TIS model, non-senescent control cells; details: Homo sapiens, A549, Control cells, mean, read-out: Mean % Cell Survival
Method in brief: as §1

Molecule `CO[C@H]1C[C@@H]2CC[C@@H](C)[C@@](O)(O2)C(=O)C(=O)N2CCCC[C@H]2C(=O)O[C@H]([C@H](C)C[C@@H]2CC[C@H](n3cnnn3)[C@H](OC)C2)CC(=O)[C@H](C)/C=C(\C)[C@@H](O)[C@@H](OC)C(=O)[C@H](C)C[C@H](C)/C=C/C=C/C=C/1C` [Zotarolimus, zotarolimus, reference compound] has a viability at 10 µM ([1]; log (dose) [M] -5, 72 h) of 111%, a viability at 4.677 µM ([1]; log (dose) [M] -5.33, 72 h) of 115% and a viability at 2.188 µM ([1]; log (dose) [M] -5.66, 72 h) of 102%. The viability at 1 µM ([1]; log (dose) [M] -6, 72 h) was 113%, the viability at 0.4677 µM ([1]; log (dose) [M] -6.33, 72 h) was 95.4% and the viability at 0.2188 µM ([1]; log (dose) [M] -6.66, 72 h) was 95.9%. It also gave a viability at 0.1 µM ([1]; log (dose) [M] -7, 72 h) of 88.4%, a viability at 0.04677 µM ([1]; log (dose) [M] -7.33, 72 h) of 106% and a viability at 0.02188 µM ([1]; log (dose) [M] -7.66, 72 h) of 116%. The viability at 0.01 µM ([1]; log (dose) [M] -8, 72 h) was 104%, the viability at 10 µM ([2]; log (dose) [M] -5) was 138% and the viability at 4.68 µM ([2]; log (dose) [M] -5.33) was 160%. It also gave a viability at 2.19 µM ([2]; log (dose) [M] -5.66) of 123%, a viability at 1 µM ([2]; log (dose) [M] -6) of 143% and a viability at 0.468 µM ([2]; log (dose) [M] -6.33) of 130%. For the same molecule, the viability at 0.219 µM ([2]; log (dose) [M] -6.66) was 174%, the viability at 0.1 µM ([2]; log (dose) [M] -7) was 155% and the viability at 0.0468 µM ([2]; log (dose) [M] -7.33) was 136%. For the same molecule, the viability at 0.0219 µM ([2]; log (dose) [M] -7.66) was 127%, the viability at 0.01 µM ([2]; log (dose) [M] -8) was 84.3% and the viability at 10 µM ([3]; log (dose) [M] -5) was 84.8%. The viability at 4.68 µM ([3]; log (dose) [M] -5.33) was 92.5%, the viability at 2.19 µM ([3]; log (dose) [M] -5.66) was 84.4% and the viability at 1 µM ([3]; log (dose) [M] -6) was 76.7%. For the same molecule, the viability at 0.468 µM ([3]; log (dose) [M] -6.33) was 92.9%, the viability at 0.219 µM ([3]; log (dose) [M] -6.66) was 91% and the viability at 0.1 µM ([3]; log (dose) [M] -7) was 95.4%. The viability at 0.0468 µM ([3]; log (dose) [M] -7.33) was 98.8%, the viability at 0.0219 µM ([3]; log (dose) [M] -7.66) was 96.8% and the viability at 0.01 µM ([3]; log (dose) [M] -8) was 109%.
